Source: ChEMBL document CHEMBL6087449, “Identification of an Isoxazole Derivative as an Antitubercular Compound for Targeting the FadD Enzymes of Mycobacterium tuberculosis” (J Med Chem, 2025)
In brackets after ≈: the same amount, converted by molar mass.

What was measured:
[1] = test system: Mycobacterium tuberculosis; experiment: Antitubercular activity against Mycobacterium tuberculosis by alamar blue assay; assay type: functional
[2] = test system: Mycobacterium tuberculosis; experiment: Antitubercular activity against Mycobacterium tuberculosis H37Rv; assay type: functional
[3] = test system: Mycolicibacterium smegmatis; experiment: Antimycobacterial activity against Mycobacterium smegmatis; assay type: functional
[4] = test system: Mycobacterium tuberculosis; experiment: Antitubercular activity against Mycobacterium tuberculosis H37Rv assessed as inhibition of bacterial growth incubated for 5 days by Alamar Blue based assay; assay type: functional, organism-based; conditions: 120 h

Row | SMILES | MIC [1] [µM] | MIC [2] [µM] | MIC [3] [µM] | IC50 [4] [µg/mL]
1 | CCCCCCCCCCCC(=O)NS(=O)(=O)OC[C@H]1O[C@@H](n2cnc3c(N)ncnc32)[C@H](O)[C@@H]1O | 100 (≈ 52.9 µg/mL) | 100 (≈ 52.9 µg/mL) | 215 (≈ 114 µg/mL) | –
2 | Oc1ccccc1-c1cc(C(F)(F)F)no1 | – | – | – | 11.7 (≈ 51.1 µM)
